This is an account of results in paper PMC8405639, “2-Carba-lysophosphatidic acid is a novel β-lysophosphatidic acid analogue with high potential for lysophosphatidic acid receptor activation and autotaxin inhibition” (Scientific Reports, 2021).

In series [1] the test system is extracellular signal-regulated kinase (ERK) phosphorylation. As to the kind of experiment: Western blot analysis of phosphorylated ERK in HeLa cells. It is filed as cell-based. The settings on record: HeLa cells preincubated with 10 µM Ki16425 for 30 min. As for the experimental part: Figure 3 Effects of 2-carba-lysophosphatidic acid (2carbaLPA) on the phosphorylation of the extracellular signal-regulated kinase (ERK) protein. HeLa cells were preincubated with 10 µM Ki16425 for 30 min at 37 °C and then incubated with 10 µM 2carbaLPA, lysophosphatidic acid (LPA) 18:1, or vehicle for 5 min at 37 °C. Protein levels of phosphorylated ERK, total ERK, and α-tubulin were determined by western blot analysis. The full-length blots are shown in the Supplementary Fig. S2.
HeLa cells were obtained from RIKEN RBC Cell Bank (Tsukuba, Japan). […] Cells were harvested using 0.125 M Tris–HCl (pH 6.8) supplemented with 4% sodium dodecyl sulphate (SDS), 20% glycerol, 10% 2-mercaptoethanol, and 0.01% bromophenol blue. Proteins were separated by SDS–polyacrylamide gel electrophoresis, and the proteins were transferred onto an Immobilon-P Transfer Membrane (Millipore, Burlington, MA, USA). The membrane was incubated with primary antibodies: anti-phospho-ERK (pERK), anti-ERK, and anti-tubulin (all at 1:1,000 dilution, Cell Signaling Technology, Danvers, MA, USA). Next, after washing, the membrane was treated with horseradish peroxidase-conjugated anti-rabbit IgG (1:1000 dilution; Cell Signaling Technology). Immunodetection was performed using an enhanced chemiluminescence system (EzWestLumi plus, ATTO Corporation, Tokyo, Japan) and ImageQuant LAS 4000 (GE healthcare, Buckinghamshire, UK).

Series [2] can be described thus: cPA analogue stability in the 293A cell medium. It is filed as in vitro ADME. The note with it: 10 µM, 1 h, 37 °C, 293A (HEK) cell medium. As for the experimental part:
Supplementary Figure S3. Cyclic phosphatidic acid (cPA) analogue stability in the HEK cell medium. Each cPA analogue (final concentration: 10 µM) was incubated with the HEK cell medium for 1 h at 37 °C. The remaining cPA analogue was quantified using liquid chromatography with tandem mass spectrometry (LC-QqQ) and calculated based on the percentage (%) ratio of the final concentration after incubation to the initial concentration. Data are represented as mean ± standard deviation (n = 3 samples).
293A cells were prepared in Hank’s balanced salt solution (HBSS) in 96-well plates. […] After incubation for 1 h at 37 ℃, 80 µL of the supernatant was collected and mixed with 320 µL of acidic methanol, including LPA 17:0 and cPA 17:0 (final concentration: 0.2 µM each; Avanti Polar Lipids, Alabaster, AL, USA).

Series [3] has as its target T1, hLPA1 (Homo sapiens, UniProt Q92633).
T1 construct: expressed in transfected cells; host or cells: 293A cells
Put plainly: TGFα-shedding assay, LPA1. The note with it: 293A cells, AP-TGFα release. It is filed as cell-based. As for the experimental part:
Figure 4 Agonistic activity of 2-carba-lysophosphatidic acid (2carbaLPA) and cyclic phosphatidic acid (cPA) analogues toward six lysophosphatidic acid (LPA) receptors. 293A cells expressing LPA receptors were stimulated with the indicated concentration of LPA, 2carbaLPA, and cPA analogues. Receptor-specific alkaline phosphatase-tagged transforming growth factor-α release was calculated by subtracting the responses in the empty vector-transfected cells from those in the receptor-expressing cells. Data are represented as standard error of the mean of three independent replicates.
293A cells (Life Technologies, Tokyo, Japan) were cultured in DMEM (Nissui Pharmaceutical, Tokyo, Japan) supplemented with 10% foetal calf serum (Gibco, Waltham, MA, USA) in an incubator at 37 °C and 5% CO2. This assay was conducted according to a modified version of a method described previously. To improve signal detection, cells for the analysis of LPA1, LPA2, LPA4, and LPA5 were transfected with Gα-chimeric proteins, whereas those for LPA4, LPA5, LPA6 analysis were treated with the LPA1–3 antagonist Ki16425. The cells were co-transfected with vectors-expressing human LPA1–6, alkaline phosphatase-tagged TGFα (AP-TGFα). As negative controls, cells transfected with an empty vector instead of the receptor-expressing vector were used. After 24 h, the cells were resuspended in Hank’s balanced salt solution (HBSS), seeded in 96-well plates, and stimulated with cPA analogues administered at tenfold concentration of the final concentration. The cPA analogues were diluted with HBSS, 0.01% protease and fatty acid-free BSA (SERVA Electrophoresis GmbH, Heidelberg, Germany). Cells for LPA4, LPA5, and LPA6 analysis were treated with Ki16425 (final concentration: 10 μM), 5 min before treatment with the cPA analogues. After incubation for 1 h at 37 °C, 80 µL of the supernatant was transferred to fresh 96-well plates. An equal volume of 1 mM p-NPP solution [120 mM Tris–HCl (pH 9.5), 40 mM NaCl, and 10 mM MgCl2] was added to both the supernatant and the cells. Alkaline phosphatase activity was calculated by measuring absorbance at 405 nm using the Cytation 3 plate reader (BioTek, Winooski, VT, USA).

T1 sequence (Q92633 whole entry): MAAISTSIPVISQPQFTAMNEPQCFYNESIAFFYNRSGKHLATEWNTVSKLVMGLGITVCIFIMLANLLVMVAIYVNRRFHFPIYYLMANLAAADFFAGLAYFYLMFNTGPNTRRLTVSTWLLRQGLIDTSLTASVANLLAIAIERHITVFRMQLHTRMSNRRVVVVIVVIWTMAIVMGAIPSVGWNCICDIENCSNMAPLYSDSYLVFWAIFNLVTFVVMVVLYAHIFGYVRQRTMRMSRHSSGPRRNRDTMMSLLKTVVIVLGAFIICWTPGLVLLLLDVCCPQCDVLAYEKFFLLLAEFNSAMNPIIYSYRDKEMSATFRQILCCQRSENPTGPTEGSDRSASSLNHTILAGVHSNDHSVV

For `Cc1noc(-c2ccc(CSCCC(=O)O)cc2)c1NC(=O)OC(C)c1ccccc1Cl` (stereo not shown) [Ki16425], the “Effect on 2carbaLPA-induced ERK activation” value in series [1] is on record as “inhibited”.
With `CCCCCCCCC=CCCCCCCCC(=O)OCC(O)COP(=O)(O)O` (stereo not shown) [LPA 18:1, 1-Oleoyl-LPA], the “Compound remaining after incubation” value in series [2] is “approximately 70%”. In series [3] (1 h), this compound displayed a 50% effective concentration (EC50) of 0.0114 µM. The Emax in series [3] (read-out: Emax ± SEM hLPA1 (converted)) is 26.9%.
